Here are results for 24 compounds from ChEMBL document CHEMBL4433204, “Design, synthesis and docking study of novel picolinamide derivatives as anticancer agents and VEGFR-2 inhibitors” (Eur J Med Chem, 2019).

For assay [1], the system named is A549. The assay is described as follows: Anticancer activity against human A549 cells assessed as reduction in cell viability incubated for 48 hrs by MTT assay. As to conditions: A549, 48 h.
Assay [2] deals with A549. The assay is described as follows: Induction of apoptosis in human A549 cells assessed as total apoptotic cells at 2 uM after 24 hrs by Annexin V-FITC/propidium iodide double staining based flow cytometry relative to control. The format is functional. (In flow cytometry, cells or beads pass a laser one at a time.)
Assay [3] addresses Vascular endothelial growth factor receptor 2 (Homo sapiens, UniProt P35968). The assay is described as follows: Inhibition of human VEGFR2 in human A549 cells incubated for over night by ELISA method. Type of assay: cell-based. (In an ELISA, binding on a coated surface is turned into a signal by an enzyme label.)
Assay [4] concerns the target Receptor tyrosine-protein kinase erbB-2 (Homo sapiens, UniProt P04626). Kind of assay: Inhibition of human HER2 in human A549 cells by ELISA method. The format is cell-based.
Assay [5] has as its target Hepatocyte growth factor receptor (Homo sapiens, UniProt P08581). The assay is described as follows: Inhibition of human c-MET incubated for 2 hrs by ELISA method.
Assay [6] addresses Epidermal growth factor receptor (Homo sapiens, UniProt P00533). Kind of assay: biochemical. Type of assay: cell-based, Sf9.
Assay [7] has as its target T1, Tyrosine-protein kinase Mer (Homo sapiens, UniProt Q12866).
T1 sequence (Q12866 whole entry): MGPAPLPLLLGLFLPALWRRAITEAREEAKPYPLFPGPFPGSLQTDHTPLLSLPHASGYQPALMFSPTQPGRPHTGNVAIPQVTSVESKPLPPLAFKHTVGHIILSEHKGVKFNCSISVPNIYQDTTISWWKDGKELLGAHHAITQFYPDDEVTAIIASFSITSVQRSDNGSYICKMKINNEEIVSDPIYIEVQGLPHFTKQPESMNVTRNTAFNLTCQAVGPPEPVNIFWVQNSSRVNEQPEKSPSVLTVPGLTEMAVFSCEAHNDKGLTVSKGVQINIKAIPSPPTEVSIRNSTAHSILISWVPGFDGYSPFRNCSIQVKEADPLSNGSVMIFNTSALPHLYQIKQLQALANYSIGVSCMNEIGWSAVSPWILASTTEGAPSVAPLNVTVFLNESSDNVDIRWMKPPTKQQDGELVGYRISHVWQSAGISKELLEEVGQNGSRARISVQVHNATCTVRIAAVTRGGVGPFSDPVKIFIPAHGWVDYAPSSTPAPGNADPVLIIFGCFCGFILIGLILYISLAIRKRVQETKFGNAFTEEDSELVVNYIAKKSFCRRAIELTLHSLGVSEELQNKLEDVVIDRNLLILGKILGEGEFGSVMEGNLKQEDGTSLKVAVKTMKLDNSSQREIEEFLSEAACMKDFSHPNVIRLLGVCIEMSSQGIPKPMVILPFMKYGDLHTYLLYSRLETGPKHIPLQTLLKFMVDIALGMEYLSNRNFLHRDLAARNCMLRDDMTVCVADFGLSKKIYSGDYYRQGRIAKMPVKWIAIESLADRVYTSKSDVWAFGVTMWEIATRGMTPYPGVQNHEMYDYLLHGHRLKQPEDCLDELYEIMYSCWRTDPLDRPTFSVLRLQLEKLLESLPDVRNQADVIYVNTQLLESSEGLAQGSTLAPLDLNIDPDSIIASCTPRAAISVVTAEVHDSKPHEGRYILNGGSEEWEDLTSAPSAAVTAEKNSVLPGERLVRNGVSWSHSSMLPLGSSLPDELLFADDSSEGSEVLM
The assay is described as follows: Inhibition of human MER incubated for 90 mins by ELISA method.

Assay [8] deals with A549. Kind of assay: Induction of apoptosis in human A549 cells assessed as measuring caspase-3 levels after 2 hrs by sandwich ELISA method (reference value: 57.22 pg/ml). Type of assay: functional.
Assay [9] concerns A549. The assay is described as follows: Induction of apoptosis in human A549 cells assessed as measuring caspase-3 levels after 2 hrs by sandwich ELISA method relative to control. Type of assay: functional.
Assay [10] relates to A549. Kind of assay: Induction of apoptosis in human A549 cells assessed as reduction in MCL-1 protein level after 2 hrs by sandwich ELISA method. Type of assay: functional, cell-based. The settings on record: A549, 2 h.
In assay [11] the test system is PANC-1. The assay is described as follows: Anticancer activity against human PANC1 assessed as reduction in cell viability at 100 uM incubated for 48 hrs by MTT assay relative to control. Type of assay: functional. (Formazan colour is commonly taken as a measure of viable cells.)
Assay [12] deals with HT-29. Kind of assay: Anticancer activity against human HT-29 assessed as reduction in cell viability at 100 uM incubated for 48 hrs by MTT assay relative to control. The format is functional.
The test system of assay [13] is A549. Kind of assay: Cell cycle arrest in human A549 cells assessed as accumulation at G0/G1 phase at 2 uM after 24 hrs by propidium iodide staining-based flow cytometric method (reference value: 65.63%). Type of assay: functional.
In assay [14] the test system is A549. The assay is described as follows: Cell cycle arrest in human A549 cells assessed as accumulation at S phase at 2 uM after 24 hrs by propidium iodide staining-based flow cytometric method (reference value: 26.79%). Type of assay: functional.
The test system of assay [15] is A549. The assay is described as follows: Cell cycle arrest in human A549 cells assessed as accumulation at G2/M phase at 2 uM after 24 hrs by propidium iodide staining-based flow cytometric method (reference value: 7.22%). Type of assay: functional.
The subject of assay [16] is A549. Kind of assay: Cell cycle arrest in human A549 cells assessed as accumulation at pre-G1 phase at 2 uM after […] by propidium iodide staining-based flow cytometric method (reference value: 0.36%). Type of assay: functional.
Assay [17] relates to A549. The assay is described as follows: Induction of apoptosis in human A549 cells assessed as viable cells at 2 uM after 24 hrs by Annexin V-FITC/propidium iodide double staining based flow cytometry (reference value: 97.87%). The format is functional. As to conditions: A549, 24 h, read-out: Activity.
Assay [18] has as its system A549. The assay is described as follows: Induction of apoptosis in human A549 cells assessed as early apoptotic cells at 2 uM after 24 hrs by Annexin V-FITC/propidium iodide double staining based flow cytometry (reference value: […]). The format is functional.
The test system of assay [19] is A549. Kind of assay: Induction of apoptosis in human A549 cells assessed as late apoptotic cells at 2 uM after 24 hrs by Annexin V-FITC/propidium iodide double staining based flow cytometry (reference value: 0.11%). The format is functional.
Assay [20] deals with A549. Kind of assay: Induction of apoptosis in human A549 cells assessed as necrotic cells at 2 uM after 24 hrs by Annexin V-FITC/propidium iodide double staining based flow cytometry (reference value: 0.1%). Type of assay: functional.
Assay [21] relates to PANC-1. Kind of assay: Anticancer activity against human PANC1 assessed as reduction in cell viability incubated for 48 hrs by MTT assay. The settings on record: PANC-1, 48 h.
The test system of assay [22] is OVCAR-3. The assay is described as follows: Anticancer activity against human OVCAR3 assessed as reduction in cell viability incubated for 48 hrs by MTT assay. The settings on record: OVCAR-3, 48 h.
The subject of assay [23] is HT-29. The assay is described as follows: Anticancer activity against human HT-29 assessed as reduction in cell viability incubated for 48 hrs by MTT assay. As to conditions: HT-29, 48 h.
The subject of assay [24] is OVCAR-3. The assay is described as follows: Anticancer activity against human OVCAR3 assessed as reduction in cell viability at 100 uM incubated for 48 hrs by MTT assay relative to control. Type of assay: functional.
For the next assay, the system named is 786-0. Kind of assay: Anticancer activity against human 786-O assessed as reduction in cell viability at 100 uM incubated for 48 hrs by MTT assay relative to control. The format is functional.

Active and inactive are the calls of the source. No cut-off for these calls is given here. Bounds are passed on as bounds.

Sequence of Hepatocyte growth factor receptor (P08581 whole entry): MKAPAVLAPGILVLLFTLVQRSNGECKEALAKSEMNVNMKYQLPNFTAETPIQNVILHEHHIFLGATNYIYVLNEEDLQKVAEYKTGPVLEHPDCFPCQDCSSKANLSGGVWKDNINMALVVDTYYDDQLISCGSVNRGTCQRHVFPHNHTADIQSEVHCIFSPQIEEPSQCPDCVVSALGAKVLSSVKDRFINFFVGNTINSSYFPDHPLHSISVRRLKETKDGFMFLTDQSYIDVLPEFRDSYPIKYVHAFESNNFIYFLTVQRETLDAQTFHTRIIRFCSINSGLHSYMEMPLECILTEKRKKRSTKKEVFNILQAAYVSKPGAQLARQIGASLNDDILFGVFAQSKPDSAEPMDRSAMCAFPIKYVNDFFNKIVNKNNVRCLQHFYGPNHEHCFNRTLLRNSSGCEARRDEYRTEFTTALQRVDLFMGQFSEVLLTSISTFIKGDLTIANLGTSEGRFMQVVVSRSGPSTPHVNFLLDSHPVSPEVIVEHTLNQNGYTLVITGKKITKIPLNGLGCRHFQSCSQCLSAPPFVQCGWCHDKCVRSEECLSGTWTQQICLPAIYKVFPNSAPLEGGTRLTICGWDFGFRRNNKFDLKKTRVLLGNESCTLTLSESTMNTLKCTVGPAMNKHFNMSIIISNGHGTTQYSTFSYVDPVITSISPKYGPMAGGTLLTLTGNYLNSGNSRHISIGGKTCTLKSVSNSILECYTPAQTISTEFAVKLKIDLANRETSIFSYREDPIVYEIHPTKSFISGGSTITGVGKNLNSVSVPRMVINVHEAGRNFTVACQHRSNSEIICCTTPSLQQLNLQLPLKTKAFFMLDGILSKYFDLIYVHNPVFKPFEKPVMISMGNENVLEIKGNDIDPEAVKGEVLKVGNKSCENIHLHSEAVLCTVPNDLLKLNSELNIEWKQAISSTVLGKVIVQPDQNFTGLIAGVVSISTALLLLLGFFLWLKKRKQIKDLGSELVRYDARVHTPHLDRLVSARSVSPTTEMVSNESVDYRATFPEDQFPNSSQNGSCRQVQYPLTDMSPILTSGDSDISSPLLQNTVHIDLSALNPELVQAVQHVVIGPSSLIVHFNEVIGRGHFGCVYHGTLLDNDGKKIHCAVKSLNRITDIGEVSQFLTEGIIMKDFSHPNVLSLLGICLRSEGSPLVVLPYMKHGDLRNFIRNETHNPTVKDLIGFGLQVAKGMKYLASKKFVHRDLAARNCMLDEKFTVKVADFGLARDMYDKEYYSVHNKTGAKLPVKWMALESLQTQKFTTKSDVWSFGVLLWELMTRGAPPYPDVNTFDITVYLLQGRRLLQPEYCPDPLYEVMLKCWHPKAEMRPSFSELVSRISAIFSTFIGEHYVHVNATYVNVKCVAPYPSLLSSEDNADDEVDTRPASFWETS
Sequence of Epidermal growth factor receptor (P00533 whole entry): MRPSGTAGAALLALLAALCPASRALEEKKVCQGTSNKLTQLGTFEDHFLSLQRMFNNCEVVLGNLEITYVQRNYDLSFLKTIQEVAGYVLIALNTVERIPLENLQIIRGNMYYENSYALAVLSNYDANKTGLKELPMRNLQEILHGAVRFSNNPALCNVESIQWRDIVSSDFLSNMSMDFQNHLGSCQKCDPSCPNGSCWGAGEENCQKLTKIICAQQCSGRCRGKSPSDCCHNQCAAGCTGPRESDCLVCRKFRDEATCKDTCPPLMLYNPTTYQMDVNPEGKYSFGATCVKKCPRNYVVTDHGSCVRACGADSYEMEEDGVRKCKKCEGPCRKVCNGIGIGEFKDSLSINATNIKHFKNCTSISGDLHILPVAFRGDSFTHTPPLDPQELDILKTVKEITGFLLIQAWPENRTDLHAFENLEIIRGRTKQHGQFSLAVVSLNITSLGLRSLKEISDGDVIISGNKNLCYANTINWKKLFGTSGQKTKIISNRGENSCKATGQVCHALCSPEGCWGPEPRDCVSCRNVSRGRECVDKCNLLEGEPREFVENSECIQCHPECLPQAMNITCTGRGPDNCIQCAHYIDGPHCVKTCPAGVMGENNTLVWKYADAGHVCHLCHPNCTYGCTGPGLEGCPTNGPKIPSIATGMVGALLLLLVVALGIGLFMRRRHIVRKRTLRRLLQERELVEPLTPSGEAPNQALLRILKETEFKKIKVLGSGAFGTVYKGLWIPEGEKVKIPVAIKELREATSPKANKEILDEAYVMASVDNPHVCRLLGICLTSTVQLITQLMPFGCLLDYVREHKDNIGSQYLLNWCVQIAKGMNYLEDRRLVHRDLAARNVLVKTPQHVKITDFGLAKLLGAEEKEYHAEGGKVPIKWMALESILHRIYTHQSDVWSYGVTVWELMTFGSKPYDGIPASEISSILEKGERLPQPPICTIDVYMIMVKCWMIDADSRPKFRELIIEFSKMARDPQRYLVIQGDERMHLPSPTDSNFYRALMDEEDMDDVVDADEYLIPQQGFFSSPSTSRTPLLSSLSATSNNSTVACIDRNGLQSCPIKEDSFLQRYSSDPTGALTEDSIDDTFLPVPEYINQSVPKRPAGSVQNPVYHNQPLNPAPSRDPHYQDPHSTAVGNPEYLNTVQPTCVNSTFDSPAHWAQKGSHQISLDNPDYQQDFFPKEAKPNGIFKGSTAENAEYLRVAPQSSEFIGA
Sequence of Receptor tyrosine-protein kinase erbB-2 (P04626 whole entry): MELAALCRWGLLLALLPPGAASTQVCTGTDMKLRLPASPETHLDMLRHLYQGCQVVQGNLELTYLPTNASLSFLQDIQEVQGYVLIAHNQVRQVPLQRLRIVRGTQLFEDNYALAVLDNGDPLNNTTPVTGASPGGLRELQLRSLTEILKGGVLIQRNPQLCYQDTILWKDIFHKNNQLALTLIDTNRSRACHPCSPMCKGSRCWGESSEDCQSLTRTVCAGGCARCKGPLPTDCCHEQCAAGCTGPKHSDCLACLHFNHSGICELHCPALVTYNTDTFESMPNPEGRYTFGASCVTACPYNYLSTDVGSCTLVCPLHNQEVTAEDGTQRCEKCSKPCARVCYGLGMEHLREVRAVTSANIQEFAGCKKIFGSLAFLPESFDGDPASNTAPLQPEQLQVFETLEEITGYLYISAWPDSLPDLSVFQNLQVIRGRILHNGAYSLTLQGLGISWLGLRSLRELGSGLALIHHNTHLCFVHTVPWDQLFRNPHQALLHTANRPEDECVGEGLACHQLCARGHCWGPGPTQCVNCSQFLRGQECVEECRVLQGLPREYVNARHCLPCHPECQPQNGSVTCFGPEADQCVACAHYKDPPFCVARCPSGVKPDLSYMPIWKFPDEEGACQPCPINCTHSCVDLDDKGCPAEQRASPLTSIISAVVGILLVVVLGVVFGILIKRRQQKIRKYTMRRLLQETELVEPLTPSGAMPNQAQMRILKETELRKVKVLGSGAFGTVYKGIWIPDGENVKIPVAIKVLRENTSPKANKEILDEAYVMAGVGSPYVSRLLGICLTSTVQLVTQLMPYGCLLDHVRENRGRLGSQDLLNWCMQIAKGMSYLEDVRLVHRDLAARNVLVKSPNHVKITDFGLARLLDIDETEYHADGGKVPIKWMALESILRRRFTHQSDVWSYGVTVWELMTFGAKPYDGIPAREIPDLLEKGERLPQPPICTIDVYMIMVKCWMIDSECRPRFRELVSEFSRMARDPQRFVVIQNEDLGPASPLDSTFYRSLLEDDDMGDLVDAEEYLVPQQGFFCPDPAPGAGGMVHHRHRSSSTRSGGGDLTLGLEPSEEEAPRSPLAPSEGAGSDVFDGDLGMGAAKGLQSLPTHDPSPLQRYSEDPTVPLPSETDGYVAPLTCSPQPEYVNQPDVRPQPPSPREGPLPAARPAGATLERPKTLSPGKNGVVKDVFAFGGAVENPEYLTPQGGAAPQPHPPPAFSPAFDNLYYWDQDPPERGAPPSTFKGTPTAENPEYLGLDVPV

Regarding `C=CCN1CCN(C(=S)SCC(=O)Nc2cccc(NC(=O)c3ccccn3)c2)CC1`, the IC50 – broadly, the point on the concentration scale where inhibition reaches its midpoint – in the assay on A549 [1] came to 210 nM.
Same read-out and setting: for `O=C(CSC(=S)N1CCN(c2ncccn2)CC1)Nc1cccc(NC(=O)c2ccccn2)c1` the value was 40 nM; for `O=C(CCSC(=S)N1CCN(c2ncccn2)CC1)Nc1cccc(NC(=O)c2ccccn2)c1`, 460 nM; for `O=C(Nc1cccc(NC(=S)Nc2ccc([N+](=O)[O-])cc2)c1)c1ccccn1`, 450 nM.
As to `O=C(CSC(=S)N1CCCCC1)Nc1cccc(NC(=O)c2ccccn2)c1`, the “fold change (FC)” value in the assay on A549 [2] is reported as 49; in the assay with A549 [9] it was 8.833. In addition, the IC50 with A549 [1] came out at 320 nM; in assay [3] it was 27 nM; in [4], 104 nM; in assay [5], 8300 nM; in [6], 84 nM; in [7], 3950 nM. Further, the IC50 in the assay on A549 [10] is 6700 nM. Also, the Activity in the assay on A549 [8] was 505.4 pg/mL; in the assay on A549 [13], 52.92%; in the assay on A549 [14], 16.66%; in the assay with A549 [15], 17.36%; in the assay with A549 [16], 13.06%; in the assay on A549 [18], 5.01%. For the same compound, the Activity in the assay on A549 [19] worked out at 7.72%; in the assay on A549 [20] it was 1.33%. For the same compound, the result in the assay with PANC-1 [11] and in the assay on HT-29 [12] was Active. For the same compound, in the assay with A549 [17], the viability at 2 µM is 85.2%.
For `O=C(CSC(=S)N1CCOCC1)Nc1cccc(NC(=O)c2ccccn2)c1`, the IC50 with A549 [1] worked out at 50 nM.
Still for that read-out and setting: for `CC(C)(C)OC(=O)N1CCN(C(=S)SCC(=O)Nc2cccc(NC(=O)c3ccccn3)c2)CC1` the value was 180 nM; for `O=C(Nc1ccc([N+](=O)[O-])cc1)Nc1cccc(NC(=O)c2ccccn2)c1`, 320 nM.
Same read-out and setting: the same measure for `CN1CCN(C(=S)SCC(=O)Nc2cccc(NC(=O)c3ccccn3)c2)CC1`: 1340 nM; for `O=C(Nc1ccc(Cl)cc1)Nc1cccc(NC(=O)c2ccccn2)c1`: 3620 nM; for `O=C(CSC(=S)N1CCN(C2CCCCC2)CC1)Nc1cccc(NC(=O)c2ccccn2)c1`: 390 nM.
Same read-out and setting: for `O=C(NCc1ccccc1)Nc1cccc(NC(=O)c2ccccn2)c1` the value was 2990 nM; for `O=C(Nc1cccc(NC(=S)Nc2ccccc2)c1)c1ccccn1`, 4400 nM.
Turning to `O=C(Nc1cccc(NC(=O)c2ccccn2)c1)Nc1ccc2ccccc2c1`, in the assay on A549 [1], the IC50 is 240 nM.
On the same count and under the same terms, the same measure for `O=C(CSC(=S)N1CCN(c2ccccc2)CC1)Nc1cccc(NC(=O)c2ccccn2)c1`: 530 nM; for `O=C(CCSC(=S)N1CCCCC1)Nc1cccc(NC(=O)c2ccccn2)c1`: 4120 nM.
The same measure, in the same setting: the same measure for `Cc1ccc(NC(=O)Nc2cccc(NC(=O)c3ccccn3)c2)cc1`: 20 nM.
For the compound `CNC(=O)c1cc(Oc2ccc(NC(=O)Nc3ccc(Cl)c(C(F)(F)F)c3)cc2)ccn1` [SORAFENIB], the IC50 in the assay with A549 [1] was 750 nM; with A549 [10], 5530 nM; with PANC-1 [21], 20000 nM; with OVCAR-3 [22], 12000 nM; in the assay on HT-29 [23] it was 10000 nM. In addition, the Activity in the assay on A549 [8] worked out at 515 pg/mL; in the assay on A549 [13], 45.13%; with A549 [14] it was 15.51%; in the assay on A549 [15], 23.14%; in the assay with A549 [16], 16.22%; in the assay on A549 [18], 6.18%. Also, the figures for the Activity in the assay on A549 [19] and in the assay on A549 [20] were 8.62% and 1.42%, respectively. Also, the viability at 2 µM in the assay on A549 [17] was determined as 82%.
In the case of `O=C(CCSC(=S)N1CCOCC1)Nc1cccc(NC(=O)c2ccccn2)c1`, in the assay on A549 [1], the IC50 is 2420 nM.
The same measure, in the same setting: the same measure for `O=C(Nc1cccc(Cl)c1)Nc1cccc(NC(=O)c2ccccn2)c1`: 2850 nM.
In the case of `O=C(CCSC(=S)N1CCN(c2ccccc2)CC1)Nc1cccc(NC(=O)c2ccccn2)c1`, the IC50 in the assay with A549 [1] worked out at 31700 nM; in assay [3], 94 nM; in [4], 54 nM; in [5] it was 17900 nM; in assay [6], 70 nM; in assay [7], 3120 nM. In addition, the result in the assay with PANC-1 [11] and in the assay with HT-29 [12] was Active.
Turning to `CCN1CCN(C(=S)SCC(=O)Nc2cccc(NC(=O)c3ccccn3)c2)CC1`, the IC50 with A549 [1] is 3720 nM.
With `O=C(Nc1cccc(NC(=O)c2ccccn2)c1)NC1CCCCC1`, the IC50 in the assay on A549 [1] is 6260 nM; in assay [3] it was 87 nM; in assay [4], 64 nM; in [5] it was 6220 nM; in [6] it was 147 nM; in [7] it was 2630 nM. Also, the Activity entry in the assay on PANC-1 [11], in the assay with OVCAR-3 [24], in the assay on HT-29 [12] and in the assay with 786-0 was “<=50%” throughout.
`O=C(Nc1ccccc1)Nc1cccc(NC(=O)c2ccccn2)c1`: the IC50 in the assay with A549 [1] is 5190 nM.
